The values below come from patent US20250340561A1, “QUINAZOLINE COMPOUND FOR INDUCING DEGRADATION OF G12D MUTANT KRAS PROTEIN” (Astellas Pharma Inc., priority 2021, published 2025).

Where a name gives a salt, the structure may show the parent alone.

T1 sequence (P01116 1-188 isoform P01116-2 G12D): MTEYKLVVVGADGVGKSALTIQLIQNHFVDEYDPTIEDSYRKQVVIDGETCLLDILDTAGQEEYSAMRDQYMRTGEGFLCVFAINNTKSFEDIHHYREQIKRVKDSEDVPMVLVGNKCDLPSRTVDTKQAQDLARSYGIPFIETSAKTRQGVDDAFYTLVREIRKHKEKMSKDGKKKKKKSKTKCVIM

The first test addresses T1, KRAS G12D (Homo sapiens, UniProt P01116, G12D).
T1 construct: host or cells: AsPC-1 human pancreatic cancer cells
Put plainly: Test Example 1-1: KRAS degradation action in AsPC-1, sandwich ELISA. Format: cell-based. The conditions noted are these: AsPC-1 cells, 24 hours treatment, corrected with β-actin, 0% = 10 μM Example No. 7. As for the experimental part:
Test Example 1-1: Evaluation of KRAS Degradation Action on Human G12D Mutant KRAS-Positive Pancreatic Cancer Line AsPC-1
The KRAS degradation action of test compounds was evaluated by measuring the expression levels of KRAS G12D by a sandwich ELISA method.
AsPC-1 cells (ATCC, CRL-1682) were seeded at 90 μL per well on a 96-well plate (from IWAKI) to give 1.8×10^4 cells per well. As for the cell culture conditions, RPMI 1640 medium (from Merck) containing 10% fetal bovine serum (from Cytiva) was used in the presence of 5% CO2 at 37° C.
The next day, the test compounds (10 points having final concentrations in the range of 10 μM to 0.3 nM) were diluted 100-fold with a fresh medium and were added at 10 μL per well. The same treatments were each applied to 4 wells. In addition, in production of the sandwich ELISA plate, a capture antibody (anti-KRAS antibody, from LS Bio) mixed in Phosphate Buffered Saline [PBS; from FUJIFILM Wako Pure Chemical Corporation] in 1,000-fold dilution was added at 20 μL per well to a Maxisorp 384-well plate (from Thermo Scientific), and after attaching a seal, the plate was allowed to stand at 4° C. overnight.
After 24 hours of the test compound treatment, the culture supernatant was discarded. Immediately, a cytolytic solution (produced by adding, to a RIPA buffer [from Thermo Scientific], a Halt Protease Phosphatese Inhibitor Cocktail [from Thermo Scientific] and Benzonase Nuclease [from Merck] in amounts of 1/100 and 1/500, respectively) was added at 50 μL per well, and the cells were lysed. Then, equally treated 4 wells were combined to prepare a cell lysate sample of 200 μL in total. For KRAS detection, the Maxisorp 384-well plate which had been treated with the capture antibody since the previous day was washed (twice with 25 μL each) with 0.05% Tween-20-containing PBS (from Thermo Scientific; 20×PBS Tween-20 was diluted 20-fold with ion exchange water and used) and was treated with a blocking solution (Intercept Blocking Buffer; from LI-COR Biosciences) for 60 minutes, and then, the cell lysate samples were added at 20 μL per well. For 3-actin detection, the cell lysate samples were added as they were at 20 μL per well to the Maxisorp 384-well plate, and after attaching a seal, the plate was allowed to stand at 4° C. overnight.
The next day, after washing the KRAS detection plate with 0.05% Tween-20-containing PBS, an anti-Ras (G12D mutant specific) antibody (from Cell Signaling Technology) diluted 1,000-fold with a blocking solution was added at 20 μL per well as a detection antibody, and the plate was allowed to stand for 5 hours at room temperature. Then, the plate was centrifuged to remove the supernatant (using a centrifugal dehydrator machine, the supernatant was removed by the same method hereinafter) and was washed with 0.05% Tween-20-containing PBS. Then, an anti-Rabbit IgG […] antibody (from Cell Signaling Technology) diluted 1,000-fold with a blocking solution was added at 20 μL per well as a secondary antibody, and the plate was allowed to stand for 1 hour at room temperature. The plate was centrifuged to remove the supernatant and was washed with 0.05% Tween-20-containing PBS. Then, a BM chemiluminescent ELISA substrate (from Merck) was added at 20 μL per well, and the amounts of luminescence were measured with 2103 EnVision (from PerkinElmer). In addition, the 3-actin detection plate was washed with 0.05% Tween-20-containing PBS and was treated with a blocking solution for 60 minutes, and then, an anti-β-actin antibody (from Abcam) diluted 1,000-fold with a blocking solution was added at 20 μL per well as a detection antibody. The plate was allowed to stand for 5 hours at room temperature. Then, the plate was centrifuged to remove the supernatant and washed with 0.05% Tween-20-containing PBS, and then, an anti-Mouse IgG RP-linked antibody (from Cell Signaling Technology) diluted 1,000-fold with a blocking solution was added at 20 μL per well as a secondary antibody. […]
In general, DC50 refers to the concentration at which degradation of the target reaches its halfway point. The low end stands for degradation at low concentration, the high end for degradation only at high concentration. Regarding `Cc1c(F)cc2[nH]ncc2c1-c1c(C2CC2)cc2c(N3C[C@@H]4C[C@H]3CN4)nc(OC3CCOCC3)nc2c1OCc1ccc(-c2cn([C@H](C(=O)N3C[C@H](O)C[C@H]3C(=O)N[C@@H](CO)c3ccccc3)C(C)C)nn2)cc1` (atropisomer, axis not shown) [Example 14], half-maximal degradation (DC50) was put at 221 nM.

`Cc1ncsc1-c1ccc([C@H](CO)NC(=O)[C@@H]2C[C@@H](O)CN2C(=O)C(C(C)C)n2cc(-c3ccc(COc4c(-c5c(C)c(F)cc6[nH]ncc56)c(C5CC5)cc5c(N6C[C@@H]7C[C@H]6CN7)nc(OC6CCOCC6)nc45)cc3)cn2)cc1` (single isomer, unassigned) [Example 11] registered a DC50 of 178 nM.

Consider `Cc1ncsc1-c1ccc(C2(NC(=O)[C@@H]3C[C@@H](O)CN3C(=O)[C@@H](NC(=O)c3ccc(COc4c(-c5c(C)c(F)cc6[nH]ncc56)c(C5CC5)cc5c(N6C[C@@H]7C[C@H]6CN7)nc(OC6CCOCC6)nc45)cc3)C(C)C)CC2)cc1` [Example 1], for which the DC50 is 123 nM.

As to `Cc1ncsc1-c1ccc(C2(NC(=O)[C@@H]3C[C@@H](O)CN3C(=O)[C@@H](NC(=O)c3ccc(COc4c(-c5c(C)c(F)cc6[nH]ncc56)c(C5CC5)cc5c(N6C[C@@H]7C[C@H]6CN7)nc(OC6CCOCC6)nc45)cn3)C(C)C)CC2)cc1` [Example 2], the DC50 came out at 598 nM.

`Cc1ncsc1-c1ccc([C@H](CO)NC(=O)[C@@H]2C[C@@H](O)CN2C(=O)[C@@H](NC(=O)c2ccc(COc3c(-c4c(C)c(F)cc5[nH]ncc45)c(C4CC4)cc4c(N5C[C@@H]6C[C@H]5CN6)nc(OC5CCOCC5)nc34)cc2)C(C)C)cc1` [Example 3] registered a DC50 of 140 nM.

For the molecule `Cc1ncsc1-c1ccc([C@H](CO)NC(=O)[C@@H]2C[C@@H](O)CN2C(=O)[C@H](C(C)C)N2Cc3cc(COc4c(-c5c(C)c(F)cc6[nH]ncc56)c(C5CC5)cc5c(N6C[C@@H]7C[C@H]6CN7)nc(OC6CCOCC6)nc45)ccc3C2=O)cc1` [Example 4], the DC50 stood at 897 nM.

The molecule `CCOc1nc(N2C[C@@H]3C[C@H]2CN3)c2cc(C3CC3)c(-c3c(C)c(F)cc4[nH]ncc34)c(OCc3ccc(C(=O)N[C@H](C(=O)N4C[C@H](O)C[C@H]4C(=O)N[C@@H](CO)c4ccc(-c5scnc5C)cc4)C(C)C)cc3)c2n1` [Example 5] gave a DC50 of 153 nM.

Turning to `Cc1ncsc1-c1ccc(C2(NC(=O)[C@@H]3C[C@@H](O)CN3C(=O)[C@H](C(C)C)n3cc(-c4ccc(COc5c(-c6c(C)c(F)cc7[nH]ncc67)c(C6CC6)cc6c(N7C[C@@H]8C[C@H]7CN8)nc(OC7CCOCC7)nc56)cc4)nn3)CC2)cc1` [Example 6], it took 103 nM to reach half-maximal degradation (DC50).

Molecule `Cc1ncsc1-c1ccc([C@H](CO)NC(=O)[C@@H]2C[C@@H](O)CN2C(=O)[C@H](C(C)C)n2cc(-c3ccc(COc4c(-c5c(C)c(F)cc6[nH]ncc56)c(C5CC5)cc5c(N6C[C@@H]7C[C@H]6CN7)nc(OC6CCOCC6)nc45)cc3)nn2)cc1` [Example 8, (4R)-1-[(2S)-2-(4-{4-[({6-cyclopropyl-4-[(1S,4S)-2,5-diazabicyclo[2.2.1]heptan-2-yl]-7-(6-fluoro-5-methyl-1H-indazol-4-yl)-2-[(oxan-4-yl)oxy]quinazolin-8-yl}oxy)methyl]phenyl}-1H-1,2,3-triazol-1-yl)-3-methylbutanoyl]-4-hydroxy-N-{(1R)-2-hydroxy-1-[4-(4-methyl-1,3-thiazol-5-yl)phenyl]ethyl}-L-prolinamide] returned a DC50 of 37 nM.

`Cc1ncsc1-c1ccc([C@H](C)NC(=O)[C@@H]2C[C@@H](O)CN2C(=O)[C@H](C(C)C)n2cc(-c3ccc(COc4c(-c5c(C)c(F)cc6[nH]ncc56)c(C5CC5)cc5c(N6C[C@@H]7C[C@H]6CN7)nc(OC6CCOCC6)nc45)cc3)nn2)cc1` [Example 9]: the DC50 stood at 77 nM.

For the molecule `Cc1ncsc1-c1ccc(CNC(=O)[C@@H]2C[C@@H](O)CN2C(=O)[C@H](C(C)C)n2cc(-c3ccc(COc4c(-c5c(C)c(F)cc6[nH]ncc56)c(C5CC5)cc5c(N6C[C@@H]7C[C@H]6CN7)nc(OC6CCOCC6)nc45)cc3)nn2)cc1` [Example 10], it took 124 nM to reach half-maximal degradation (DC50).

In the case of `Cc1c(F)cc2[nH]ncc2c1-c1c(C2CC2)cc2c(N3C[C@@H]4C[C@H]3CN4)nc(OC3CCOCC3)nc2c1OCc1ccc(-c2cn([C@H](C(=O)N3C[C@H](O)C[C@H]3C(=O)N[C@@H](CO)c3ccc(Br)cc3)C(C)C)nn2)cc1` [Example 12], half-maximal degradation (DC50) was put at 136 nM.

Molecule `Cc1c(F)cc2[nH]ncc2c1-c1c(C2CC2)cc2c(N3C[C@@H]4C[C@H]3CN4)nc(OC3CCOCC3)nc2c1OCc1ccc(-c2cn([C@H](C(=O)N3C[C@H](O)C[C@H]3C(=O)N[C@@H](CO)c3ccc(F)cc3)C(C)C)nn2)cc1` [Example 13] showed a 50% degradation concentration (DC50) of 151 nM.

The molecule `Cc1ncsc1-c1ccc([C@H](CO)NC(=O)[C@@H]2C[C@@H](O)CN2C(=O)[C@H](C(C)C)n2cc(-c3ccc(COc4c(-c5cc(O)cc(F)c5C)c(C5CC5)cc5c(N6C[C@@H]7C[C@H]6CN7)nc(OC6CCOCC6)nc45)cc3)nn2)cc1` [Example 15] had a DC50 of 95 nM.

As for `Cc1ncsc1-c1ccc([C@@H](NC(=O)[C@@H]2C[C@@H](O)CN2C(=O)[C@H](C(C)C)n2cc(-c3ccc(COc4c(-c5c(C)c(F)cc6[nH]ncc56)c(C5CC5)cc5c(N6C[C@@H]7C[C@H]6CN7)nc(OC6CCOCC6)nc45)cc3)nn2)C(F)F)cc1` [Example 16], half-maximal degradation (DC50) was put at 188 nM.

For `Cc1ncsc1-c1ccc([C@H](CF)NC(=O)[C@@H]2C[C@@H](O)CN2C(=O)[C@H](C(C)C)n2cc(-c3ccc(COc4c(-c5c(C)c(F)cc6[nH]ncc56)c(C5CC5)cc5c(N6C[C@@H]7C[C@H]6CN7)nc(OC6CCOCC6)nc45)cc3)nn2)cc1` [Example 17], the DC50 was found to be 92 nM.

Molecule `Cc1c(F)cc2[nH]ncc2c1-c1c(C2CC2)cc2c(N3C[C@@H]4C[C@H]3CN4)nc(OC3CCOCC3)nc2c1OCc1ccc(-c2cn([C@H](C(=O)N3C[C@H](O)C[C@H]3C(=O)N[C@@H](CO)c3ccc(-c4scnc4CO)cc3)C(C)C)nn2)cc1` [Example 18, (4R)-1-[(2S)-2-(4-{4-[({6-cyclopropyl-4-[(1S,4S)-2,5-diazabicyclo[2.2.1]heptan-2-yl]-7-(6-fluoro-5-methyl-1H-indazol-4-yl)-2-[(oxan-4-yl)oxy]quinazolin-8-yl}oxy)methyl]phenyl}-1H-1,2,3-triazol-1-yl)-3-methylbutanoyl]-4-hydroxy-N-[(1R)-2-hydroxy-1-{4-[4-(hydroxymethyl)-1,3-thiazol-5-yl]phenyl}ethyl]-L-prolinamide n hydrochloride] gave a DC50 of 74 nM.

`Cc1ncsc1-c1ccc([C@H](CN(C)C)NC(=O)[C@@H]2C[C@@H](O)CN2C(=O)[C@H](C(C)C)n2cc(-c3ccc(COc4c(-c5c(C)c(F)cc6[nH]ncc56)c(C5CC5)cc5c(N6C[C@@H]7C[C@H]6CN7)nc(OC6CCOCC6)nc45)cc3)nn2)cc1` [Example 19] registered a DC50 of 139 nM.

Staying with this test, now noted: AsPC-1 cells, 24 hours treatment, corrected with β-actin, 0% = 10 μM Example No. 7, hydrochloride.
As for `Cc1ncsc1-c1ccc([C@H](CO)NC(=O)[C@@H]2C[C@@H](O)CN2C(=O)[C@H](C(C)C)n2cc(-c3ccc(COc4c(-c5c(C)c(F)cc6[nH]ncc56)c(C5CC5)cc5c(N6C[C@@H]7C[C@H]6CN7)nc(OC6CCOCC6)nc45)cc3)nn2)cc1` [Example 7, (4R)-1-[(2S)-2-(4-{4-[({6-cyclopropyl-4-[(1S,4S)-2,5-diazabicyclo[2.2.1]heptan-2-yl]-7-(6-fluoro-5-methyl-1H-indazol-4-yl)-2-[(oxan-4-yl)oxy]quinazolin-8-yl}oxy)methyl]phenyl}-1H-1,2,3-triazol-1-yl)-3-methylbutanoyl]-4-hydroxy-N-{(1R)-2-hydroxy-1-[4-(4-methyl-1,3-thiazol-5-yl)phenyl]ethyl}-L-prolinamide n hydrochloride], half-maximal degradation (DC50) was put at 46 nM.
